The source of these data is patent publication US9446051B2, “Neuroprotection and myelin repair using nestorone®” (The Population Council, Inc., priority 2009, dated 2016).

Data set [1] relates to primary hippocampal neurons. The experiment in a line: Neuroprotection of primary hippocampal neurons against glutamate, LDH release. The settings on record: for neuroprotective efficacy against 200 μM glutamate (LDH release) compared with progesterone: dose-response, FIGS. 7A-F. It is filed as cell-based. Here is the method: The effect of NES and other progestins on CNS plasticity and the neuroprotective efficacy against glutamate toxicity has also been evaluated. LDH was measured, as a well-accepted assay, to determine such effect after exposure of the cells to glutamate, and the neuronal viability was assessed under the action of various progestins.
Comparisons of neuroprotection against neurodegenerative insults were carried out. Efficacy was determined in connection with the protection of primary hippocampal neurons against degeneration induced by excitoxic glutamate. Hippocampal neuronal cultures grown on […] culture plates for 7d in vitro were pretreated with vehicle alone or test compounds, followed by exposure to 200 μM glutamate as previously described (13). After glutamate exposure, cultures were washed with HEPES-buffered saline solution and replaced with fresh NBM containing the test compounds or combinations. Cultures were returned to the incubator and incubated for 24 hours prior to analysis of neuronal viability using colorimetric LDH release in the media. Dose-response analysis was conducted for each of the progestins tested, and the results are shown in FIGS. 7A-F. Neuroprotective efficiency was calculated as follows: NE=(Vsample−Vglutamate)/(Vsubcontrol−Vglutamate).
For orientation: LDH in the medium is a marker of cell lysis.

Data set [2] concerns neural progenitor cell (NPC). The experiment in a line: Neural progenitor cell proliferation, BrdU chemiluminescence ELISA. The settings on record: for proliferation of progenitor cells compared with progesterone: FIG. 3 and FIG. 4; for NPC proliferation (BrdU incorporation) compared with progesterone: at 24 hours, FIGS. 6A-D. The format is cell-based, rat. Here is the method:
In vitro studies were carried out to determine neural progenitor cell (NPC) regeneration in rats. Cell proliferation was determined by S phase incorporation of BrdU. After 4 to 6 hours starvation (medium without supplements), rNPCs were loaded with 10 μM BrdU in the presence or absence of bFGF and varying concentrations of P4 or test progestins in unsupplemented maintenance medium for 1d. The rNPCs were then processed as described previously (1, 14). After subtracting the value of the blank (without BrdU loading), data were analyzed using a one-way ANOVA, followed by a Neuman-Keuls post hoc test.

The subject of data set [3] is primary hippocampal neuron cultures. As to conditions: cited from earlier work; for protection against glutamate toxicity: alone or in combination, 48 hours before glutamate insult.
For data set [4], the system named is hippocampus of Sprague-Dawley ovariectomized female rats. The experiment in a line: In vivo NPC proliferation and cell viability in ovariectomized rats (Western blot, FACS of BrdU+ cells). The settings on record: for PCNA expression at the protein level: FIG. 8A. Also noted: species or system rat. Here is the method:
The generalized ability of the above in vitro findings to the in vivo condition were investigated. Analyses of NPC proliferation in rats and cell viability were conducted in three-month-old Sprague-Dawley ovariectomized female rats with various of the progestins. […] In order to assess the total number of BrdU+ cells, the contralateral hippocampal hemisphere used for protein analysis was fixed and processed by FACS analysis. The total number of BrdU+ cells per each hippocampus was determined and normalized to that of vehicle control. […] In order to measure cell viability in terms of promotion of mitochondrial function and reduction in oxidative damage expression of the alpha subunit of ATP synthase-Complex V (CVα) of the mitochondrial oxidative phosphorylation pathway was assessed by Western blot analysis.
(In western blotting, separated proteins are transferred to a membrane and probed.)

Data set [5] deals with hippocampi of ovariectomized female Sprague Dawley rats. It is filed as in vivo. The settings on record: stated 'as noted above'. Here is the method: The impact of the combination of 17β-estradiol (E2) and various progestins on neurogenesis and cell viability […] was also carried out. Young adult ovariectomized female Sprague Dawley rates were thus divided into six groups and received injection of either E2 alone or E2 combined with one of the progestins. Hippocampi were isolated 24 hours later for Western blot analysis and flow cytometry to determine the impact of treatment on cell viability and neurogenesis respectively. The expression level of PCNA was assessed to determine the impact of the treatment compounds on entry into the cell cycle required for neurogenesis.

Data set [6] deals with androgenic, estrogenic and glucocorticoid responses. As to conditions: cited from earlier work.
In a further data set the test system is Bax/Bcl-2. The experiment in a line: In vivo apoptotic activity, Bax/Bcl-2 ratio by Western blot. From the text:
The effects of various progestins on apoptosis was studied using Western blot analysis to determine the expression level of Bax, an apoptosis mediator by […] to the mitochondria to release apoptotic factors such as cytochrome c and Bcl-2. The ratio of Bax to Bcl-2 was used as an indicator of in vivo apoptotic activity.

The test system of data set [7] is organotypic neonatal rat or mouse cerebellar slice culture. The experiment in a line: Myelination in organotypic cerebellar slice culture, measured by myelin basic protein (MBP) immunoreactivity. It is filed as cell-based. The text has this: In experiments conducted in organotypic neonatal rat or mouse cerebellar slice culture, progesterone accelerated axon myelination (13,14).

A further data set has as its system PR^lacz mice with MCAO. The experiment in a line: Transient middle cerebral artery occlusion (MCAO), steroid treatment after reperfusion. It is filed as in vivo, mouse. Here is the method: In experiments conducted using progesterone receptor (PR) deficient mice (PR^−/−) compared with PR^+/− and PR^+/+ mice and both progesterone and Nestorone® were administered after ischemia and reperfusion.
In order to test the effect of steroid treatments after reperfusion, adult male PR^lacz mice were anesthetized and the middle cerebral artery (MCA) was occluded for one hour with an intraluminal filament. After ligature of the left common carotid artery, a nylon monofilament coated with thermo-melting glue was introduced through an arteriotomy performed on the external carotid artery and advanced into the internal carotid artery. Occlusion of the MCA was controlled by monitoring the cerebral blood flow within the MCA territory by laser Doppler flowmetry. The filament was withdrawn one hour after occlusion to allow reperfusion, and the common carotid artery ligature was also removed. The mice were randomly and blindly assigned to either progesterone, allopregnanolone or Nestorone®, or vehicle-treated (sesame oil; sigma). All of the steroids were initially dissolved in a small volume of ethanol and further diluted in sesame oil to obtain the desired final steroid concentrations. Injections were given interperitoneally (IP) at 1, 6, and 24 hours after MCA occlusion (MCAO) according to established neuroprotective protocols. Treated mice were killed at 48 hours after MCAO.
Cerebral infarct volumes and areas were determined after triphenyltetrazolium chloride (TTC) staining of brain sections. The details of this procedure are set forth in “Progesterone Receptors: A Key For Neuroprotection In Experimental Stroke,” Endocrinology, August 2012, 153(8), pp. 1-11, which is incorporated herein by reference thereto in its entirety. […] In FIGS. 11, 12 and 13, after the administration of progesterone and Nestorone®, in neuronal density the infarct (FIG. 11) and the penumbra (FIG. 12) can clearly be shown. In FIG. 13 the decrease in […] in the penumbra after administration of progesterone and Nestorone® is also clearly shown.

The mark [8] stands for this setting: indicator of in vivo apoptotic activity.

For the compound `C#C[C@]1(OC(C)=O)CC[C@H]2[C@@H]3CCC4=CC(=NO)CC[C@@H]4[C@H]3CC[C@@]21CC` (mixture of isomers) [norgestimate], the “neuroprotective efficacy against 200 μM glutamate (LDH release) compared with progesterone” value in data set [1] was “less potent than progesterone”. In addition, in data set [2], the “proliferation of progenitor cells compared with progesterone” value was “more proliferative than progesterone” and the “NPC proliferation (BrdU incorporation) compared with progesterone” value is reported as “more potent in cell proliferation than progesterone at all concentrations”.
With `CC(=O)[C@H]1CC[C@H]2[C@@H]3CCC4=CC(=O)CC[C@@H]4[C@H]3CC[C@]12C` [19-norprogesterone], the “protection against glutamate toxicity” value in data set [3] was “protected against glutamate toxicity”.
Turning to `CC(=O)O[C@]1(C(C)=O)CC[C@H]2[C@@H]3C[C@H](C)C4=CC(=O)CC[C@]4(C)[C@H]3CC[C@@]21C` [MPA, medroxyprogesterone acetate], the “total number of BrdU+ cells per hippocampus” value in [4] (FACS, normalized to vehicle control, FIG. 8B) is “no significant effect on cell proliferation”. For the same compound, the “PCNA expression at the protein level” value in data set [4] (Western blot) was “no significant effect”. Further, the “expression of alpha subunit of ATP synthase-Complex V (CVα)” value in [4] (Western blot, FIG. 8C) was “no significant effect”. Further, the “neuroprotective efficacy against 200 μM glutamate (LDH release) compared with progesterone” value in data set [1] is “less potent than progesterone”. For the same compound, the cell proliferation entry in data set [5] is reported as “increased cell proliferation”. Also, in [6], the androgenic response entry is given as “induce androgenic responses”; the glucocorticoid response result is “induces both androgenic and glucocorticoid responses”. For the same compound, in the data set with Bax/Bcl-2 (in vivo), the “ratio of Bax/Bcl-2 expression” value is “significantly increased”. Moreover, in [2], the “proliferation of progenitor cells compared with progesterone” value is “antagonistic” and the “NPC proliferation (BrdU incorporation) compared with progesterone” value is “significantly inhibited proliferation at multiple concentrations”. The “protection against glutamate toxicity” value in data set [3] was “failed to protect against glutamate toxicity”. Also, in [3] (coadministered with 17β-E2), the “effect on estrogen-induced neuroprotection when coadministered” value is given as “attenuated the estrogen-induced neuroprotection”.
For the compound `C[C@]12CC[C@@H]3c4ccc(O)cc4CC[C@H]3[C@@H]1CC[C@@H]2O` [estradiol, 17β-estradiol], the “protection against glutamate toxicity” value in [3] was “protected against glutamate toxicity”.
In the case of `C#C[C@]1(O)CC[C@H]2[C@@H]3CCC4=CC(=O)CC[C@@H]4[C@H]3CC[C@@]21CC` [levonorgestrel], the “PCNA expression at the protein level” value in data set [4] (Western blot) is on record as “no significant effect”. For the same compound, the “ratio of Bax/Bcl-2 expression” value in the data set on Bax/Bcl-2 (setting [8]) is reported as “significantly increased”.
In the case of `C#C[C@]1(OC(C)=O)CC[C@H]2[C@@H]3CCC4=CC(=O)CC[C@@H]4[C@H]3CC[C@@]21C` [norethindrone acetate], in data set [2], the “proliferation of progenitor cells compared with progesterone” value was “antagonistic” and the “NPC proliferation (BrdU incorporation) compared with progesterone” value was “minimal or no effect on proliferation”.
`C#C[C@]1(O)CC[C@H]2[C@@H]3CCC4=CC(=O)CC[C@@H]4[C@H]3CC[C@@]21C` [norethindrone]: the “neuroprotective efficacy against 200 μM glutamate (LDH release) compared with progesterone” value in data set [1] is given as “less potent than progesterone”. Further, in data set [6], the androgenic response result was “exert androgenic and estrogenic responses”; the estrogenic response entry was “exert androgenic and estrogenic responses”.
For the compound `C#C[C@]1(O)CC[C@H]2[C@@H]3CCC4=C(CCC(=O)C4)[C@H]3CC[C@@]21C` [norethynodrel], the “neuroprotective efficacy against 200 μM glutamate (LDH release) compared with progesterone” value in data set [1] is recorded as “more potent than progesterone at minimal effective concentrations”. In addition, in data set [6], the androgenic response entry was “exert androgenic and estrogenic responses”; the estrogenic response entry was “exert androgenic and estrogenic responses”. Also, the “proliferation of progenitor cells compared with progesterone” value in data set [2] was “more proliferative than progesterone”. In data set [2] (high nanomolar ranges), the “NPC proliferation (BrdU incorporation) compared with progesterone, high nanomolar ranges” value is on record as “significantly more efficacious than progesterone”. Further, the “NPC proliferation (BrdU incorporation) compared with progesterone, low nanomolar range” value in data set [2] (low nanomolar range) is given as “comparable effects to progesterone”.
On to `CC(=O)[C@H]1CC[C@H]2[C@@H]3CCC4=CC(=O)CC[C@]4(C)[C@H]3CC[C@]12C` [progesterone], for which the CDC2 protein expression entry in [4] (Western blot) is recorded as “significantly increased”. The “neuroprotective efficacy against glutamate toxicity (LDH)” value in [1] (FIG. 5, NES and PROG at 10−7M) is given as “exerted the higher efficacy”. The “concentration of equal promyelinating activity” value in data set [7] (NES at 20 μm as active as PROG at 50 μm (FIG. 1)) was 50 μm. In addition, the “myelination in cerebellar slices from PR knockout mice” value in data set [7] (PR knockout mice) is on record as “did not increase myelination”. Also, the “myelination measured by myelin basic protein (MBP) immunoreactivity” value in data set [7] (cerebellar slice culture) is recorded as “promote dose-dependent myelination”. The “ratio of Bax/Bcl-2 expression” value with Bax/Bcl-2 (setting [8]) is recorded as “no effect”. The compound further showed an efficient neuroprotective dose with PR^lacz mice with MCAO (after stroke) of 8 mg/kg. For the same compound, in the data set on PR^lacz mice with MCAO (treatment after stroke), the “microglial density in the penumbra (neuroinflammatory responses)” value was “reduced microglial density”; the “neuronal density in the infarct and in the penumbra” value is “significantly increases the neuronal density”. Besides, in [2], the “proliferation of progenitor cells compared with progesterone” value was “increases the proliferation” and the “NPC proliferation (BrdU incorporation) compared with progesterone” value is on record as “comparably efficacious at their EC100 concentrations”. Besides, the “protection against glutamate toxicity” value in data set [3] is reported as “protected against glutamate toxicity”.
